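GI50 is the concentration that inhibits growth by half. TGI is the concentration that stops growth completely.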
Tests used:
Assay in all cases: NCI tumour cell line growth inhibition, 384-well format
UACC-257 melanoma = tested on: UACC-257 melanoma
RPMI-8226 leukemia = tested on: RPMI-8226 leukemia
KM12 colon = tested on: KM12 colon
MDA-MB-231 breast = tested on: MDA-MB-231 breast
IGROV1 ovarian = tested on: IGROV1 ovarian
NCI-H322M lung = tested on: NCI-H322M lung
PC-3 prostate = tested on: PC-3 prostate
SF-295 CNS = tested on: SF-295 CNS
CCRF-CEM leukemia = tested on: CCRF-CEM leukemia
HCT-15 colon = tested on: HCT-15 colon
SNB-19 CNS = tested on: SNB-19 CNS
DU-145 prostate = tested on: DU-145 prostate
SF-539 CNS = tested on: SF-539 CNS
RXF 393 renal = tested on: RXF 393 renal
SK-OV-3 ovarian = tested on: SK-OV-3 ovarian
OVCAR-4 ovarian = tested on: OVCAR-4 ovarian
LOX IMVI melanoma = tested on: LOX IMVI melanoma
MCF7 breast = tested on: MCF7 breast
HT29 colon = tested on: HT29 colon
OVCAR-5 ovarian = tested on: OVCAR-5 ovarian
NCI-H460 NSCLC = tested on: NCI-H460 NSCLC
K-562 leukemia = tested on: K-562 leukemia
SNB-75 CNS = tested on: SNB-75 CNS
M14 melanoma = tested on: M14 melanoma
HS 578T breast = tested on: HS 578T breast
SN12C renal = tested on: SN12C renal
NCI-H226 lung = tested on: NCI-H226 lung
SF-268 CNS = tested on: SF-268 CNS
786-0 renal = tested on: 786-0 renal
T-47D breast = tested on: T-47D breast
HL-60(TB) leukemia = tested on: HL-60(TB) leukemia
UACC-62 melanoma = tested on: UACC-62 melanoma
A498 renal = tested on: A498 renal
HOP-92 NSCLC = tested on: HOP-92 NSCLC
BT-549 breast = tested on: BT-549 breast
EKVX NSCLC = tested on: EKVX NSCLC
NCI-H522 lung = tested on: NCI-H522 lung
NCI/ADR-RES ovarian = tested on: NCI/ADR-RES ovarian
ACHN renal = tested on: ACHN renal
TK-10 renal = tested on: TK-10 renal
SW-620 colon = tested on: SW-620 colon
MALME-3M melanoma = tested on: MALME-3M melanoma
HOP-62 NSCLC = tested on: HOP-62 NSCLC
OVCAR-3 ovarian = tested on: OVCAR-3 ovarian
SR leukemia = tested on: SR leukemia
UO-31 renal = tested on: UO-31 renal
SK-MEL-5 melanoma = tested on: SK-MEL-5 melanoma
MOLT-4 leukemia = tested on: MOLT-4 leukemia
NCI-H23 lung = tested on: NCI-H23 lung
MDA-MB-468 breast = tested on: MDA-MB-468 breast
OVCAR-8 ovarian = tested on: OVCAR-8 ovarian
A549 NSCLC = tested on: A549 NSCLC
COLO 205 colon = tested on: COLO 205 colon
SK-MEL-28 melanoma = tested on: SK-MEL-28 melanoma
MDA-MB-435 melanoma = tested on: MDA-MB-435 melanoma
HCC-2998 colon = tested on: HCC-2998 colon
CAKI-1 renal = tested on: CAKI-1 renal

Question: `Cc1c(C#N)cccc1[C@@H](C)Nc1nnc(C)c2cnc(N3CCOCC3)cc12` was tested. Which GI50 (UACC-257 melanoma) did it give?
Answer: 19.5 µM

Question: And the TGI (UACC-257 melanoma)?
Answer: 33.9 µM

Question: What about the GI50 (RPMI-8226 leukemia) of the same molecule?
Answer: 11.2 µM

Question: What about the TGI (RPMI-8226 leukemia) of the same molecule?
Answer: 23.3 µM

Question: And the GI50 (KM12 colon)?
Answer: 4.85 µM

Question: What about the TGI (KM12 colon) of the same molecule?
Answer: 22.2 µM

Question: What about the GI50 (MDA-MB-231 breast) of the same molecule?
Answer: 14.3 µM

Question: What about the TGI (MDA-MB-231 breast) of the same molecule?
Answer: 29.3 µM

Question: And the GI50 (IGROV1 ovarian)?
Answer: 15.5 µM

Question: What about the TGI (IGROV1 ovarian) of the same molecule?
Answer: 31.4 µM

Question: What about the GI50 (NCI-H322M lung) of the same molecule?
Answer: 11.8 µM

Question: What about the TGI (NCI-H322M lung) of the same molecule?
Answer: 26.6 µM

Question: And the GI50 (PC-3 prostate)?
Answer: 17 µM

Question: What about the TGI (PC-3 prostate) of the same molecule?
Answer: 32.3 µM

Question: What about the GI50 (SF-295 CNS) of the same molecule?
Answer: 14.7 µM

Question: What about the TGI (SF-295 CNS) of the same molecule?
Answer: 28 µM

Question: And the GI50 (CCRF-CEM leukemia)?
Answer: 19.5 µM

Question: And the TGI (CCRF-CEM leukemia)?
Answer: 33.7 µM

Question: And the GI50 (HCT-15 colon)?
Answer: 16.1 µM

Question: What about the TGI (HCT-15 colon) of the same molecule?
Answer: 29.9 µM

Question: What about the GI50 (SNB-19 CNS) of the same molecule?
Answer: 14.3 µM

Question: And the TGI (SNB-19 CNS)?
Answer: 37.5 µM

Question: What about the GI50 (DU-145 prostate) of the same molecule?
Answer: 18.5 µM

Question: And the TGI (DU-145 prostate)?
Answer: 37.6 µM

Question: What about the GI50 (SF-539 CNS) of the same molecule?
Answer: 15.9 µM

Question: What about the TGI (SF-539 CNS) of the same molecule?
Answer: 29.3 µM

Question: And the GI50 (RXF 393 renal)?
Answer: 12 µM

Question: What about the TGI (RXF 393 renal) of the same molecule?
Answer: 24.6 µM

Question: And the GI50 (SK-OV-3 ovarian)?
Answer: 16.7 µM

Question: What about the TGI (SK-OV-3 ovarian) of the same molecule?
Answer: 30.7 µM

Question: What about the GI50 (OVCAR-4 ovarian) of the same molecule?
Answer: 8.18 µM

Question: And the TGI (OVCAR-4 ovarian)?
Answer: 22 µM

Question: And the GI50 (LOX IMVI melanoma)?
Answer: 14 µM

Question: What about the TGI (LOX IMVI melanoma) of the same molecule?
Answer: 27.1 µM

Question: What about the GI50 (MCF7 breast) of the same molecule?
Answer: 15.8 µM

Question: And the TGI (MCF7 breast)?
Answer: 35.5 µM

Question: And the GI50 (HT29 colon)?
Answer: 15.7 µM

Question: What about the TGI (HT29 colon) of the same molecule?
Answer: 30 µM

Question: And the GI50 (OVCAR-5 ovarian)?
Answer: 19.1 µM

Question: What about the TGI (OVCAR-5 ovarian) of the same molecule?
Answer: 38.9 µM

Question: And the GI50 (NCI-H460 NSCLC)?
Answer: 17.5 µM

Question: And the TGI (NCI-H460 NSCLC)?
Answer: 32.2 µM

Question: And the GI50 (K-562 leukemia)?
Answer: 163 nM

Question: What about the TGI (K-562 leukemia) of the same molecule?
Answer: 15 µM

Question: What about the GI50 (SNB-75 CNS) of the same molecule?
Answer: 16.3 µM

Question: And the TGI (SNB-75 CNS)?
Answer: 33.3 µM

Question: What about the GI50 (M14 melanoma) of the same molecule?
Answer: 17.2 µM

Question: What about the TGI (M14 melanoma) of the same molecule?
Answer: 31.1 µM

Question: And the GI50 (HS 578T breast)?
Answer: 13.8 µM

Question: What about the TGI (HS 578T breast) of the same molecule?
Answer: 26.9 µM

Question: What about the GI50 (SN12C renal) of the same molecule?
Answer: 1650 nM

Question: What about the TGI (SN12C renal) of the same molecule?
Answer: 19.9 µM

Question: What about the GI50 (NCI-H226 lung) of the same molecule?
Answer: 12.7 µM

Question: And the TGI (NCI-H226 lung)?
Answer: 26.5 µM

Question: And the GI50 (SF-268 CNS)?
Answer: 16 µM

Question: What about the TGI (SF-268 CNS) of the same molecule?
Answer: 30.8 µM

Question: And the GI50 ([…]-0 renal)?
Answer: 13.1 µM

Question: What about the TGI (786-0 renal) of the same molecule?
Answer: 26.5 µM

Question: What about the GI50 (T-47D breast) of the same molecule?
Answer: 11.3 µM

Question: And the TGI (T-47D breast)?
Answer: 24.6 µM

Question: And the GI50 (HL-60(TB) leukemia)?
Answer: 21.8 µM

Question: And the TGI (HL-60(TB) leukemia)?
Answer: 36.2 µM

Question: And the GI50 (UACC-62 melanoma)?
Answer: 16.6 µM

Question: And the TGI (UACC-62 melanoma)?
Answer: 30.3 µM

Question: What about the GI50 (A498 renal) of the same molecule?
Answer: 12.1 µM

Question: What about the TGI (A498 renal) of the same molecule?
Answer: 24.6 µM

Question: What about the GI50 (HOP-92 NSCLC) of the same molecule?
Answer: 56.9 nM

Question: What about the TGI (HOP-92 NSCLC) of the same molecule?
Answer: 14.3 µM

Question: And the GI50 (BT-549 breast)?
Answer: 14.1 µM

Question: And the TGI (BT-549 breast)?
Answer: 27.4 µM

Question: And the GI50 (EKVX NSCLC)?
Answer: 11.7 µM

Question: And the TGI (EKVX NSCLC)?
Answer: 26.8 µM

Question: What about the GI50 (NCI-H522 lung) of the same molecule?
Answer: 11.5 µM

Question: And the TGI (NCI-H522 lung)?
Answer: 24 µM

Question: And the GI50 (NCI/ADR-RES ovarian)?
Answer: 16.6 µM

Question: What about the TGI (NCI/ADR-RES ovarian) of the same molecule?
Answer: 32.1 µM

Question: What about the GI50 (ACHN renal) of the same molecule?
Answer: 14.5 µM

Question: What about the TGI (ACHN renal) of the same molecule?
Answer: 31.6 µM

Question: And the GI50 (TK-10 renal)?
Answer: 15.2 µM

Question: And the TGI (TK-10 renal)?
Answer: 38.9 µM

Question: What about the GI50 (SW-620 colon) of the same molecule?
Answer: 12.6 µM

Question: And the TGI (SW-620 colon)?
Answer: 25.4 µM

Question: What about the GI50 (MALME-3M melanoma) of the same molecule?
Answer: 16.6 µM

Question: And the TGI (MALME-3M melanoma)?
Answer: 30.6 µM

Question: And the GI50 (HOP-62 NSCLC)?
Answer: 14.2 µM

Question: What about the TGI (HOP-62 NSCLC) of the same molecule?
Answer: 27.9 µM

Question: And the GI50 (OVCAR-3 ovarian)?
Answer: 13.4 µM

Question: What about the TGI (OVCAR-3 ovarian) of the same molecule?
Answer: 26.4 µM

Question: What about the GI50 (SR leukemia) of the same molecule?
Answer: 749 nM

Question: And the TGI (SR leukemia)?
Answer: 18.1 µM

Question: And the GI50 (UO-31 renal)?
Answer: 13.3 µM

Question: What about the TGI (UO-31 renal) of the same molecule?
Answer: 26.8 µM

Question: And the GI50 (SK-MEL-5 melanoma)?
Answer: 11 µM

Question: And the TGI (SK-MEL-5 melanoma)?
Answer: 23 µM

Question: And the GI50 (MOLT-4 leukemia)?
Answer: 12.8 µM

Question: What about the TGI (MOLT-4 leukemia) of the same molecule?
Answer: 25.5 µM

Question: What about the GI50 (NCI-H23 lung) of the same molecule?
Answer: 10.6 µM

Question: What about the TGI (NCI-H23 lung) of the same molecule?
Answer: 23.2 µM

Question: And the GI50 (MDA-MB-468 breast)?
Answer: 390 nM

Question: What about the TGI (MDA-MB-468 breast) of the same molecule?
Answer: 6.37 µM

Question: And the GI50 (OVCAR-8 ovarian)?
Answer: 15 µM

Question: What about the TGI (OVCAR-8 ovarian) of the same molecule?
Answer: 29 µM

Question: And the GI50 (A549 NSCLC)?
Answer: 16.7 µM

Question: What about the TGI (A549 NSCLC) of the same molecule?
Answer: 36.3 µM

Question: What about the GI50 (COLO 205 colon) of the same molecule?
Answer: 16.5 µM

Question: What about the TGI (COLO 205 colon) of the same molecule?
Answer: 30.5 µM

Question: And the GI50 (SK-MEL-28 melanoma)?
Answer: 15.4 µM

Question: What about the TGI (SK-MEL-28 melanoma) of the same molecule?
Answer: 29.7 µM

Question: What about the GI50 (MDA-MB-435 melanoma) of the same molecule?
Answer: 18.2 µM

Question: And the TGI (MDA-MB-435 melanoma)?
Answer: 32.4 µM

Question: And the GI50 (HCC-2998 colon)?
Answer: 18.3 µM

Question: And the TGI (HCC-2998 colon)?
Answer: 33.3 µM

Question: And the GI50 (CAKI-1 renal)?
Answer: 10.5 µM

Question: And the TGI (CAKI-1 renal)?
Answer: 23 µM
